# Experimental data from patent publication US10266567B2, “Peptides and compositions comprising same and uses thereof in the treatment of diseases” (Ariel-University Research and Development Company Ltd., priority 2015, dated 2019).
# Entries after “also recorded” stand apart in the source; their conditions may differ. Bridge positions count the residues as written; N and C are the ends. Ends that are not written are not given here.
# Legend:
# [1] = system: B16-F10 melanoma cells; assay: Metastatic melanoma mice model using B16F10 cells; format: in vivo, C57BL/6 mice
# Description: Metastatic melanoma mice model using B16F10 cells. Murine B16F10 cells grown in RPMI were harvested by trypsinization and washed with PBS. The cells were counted and resuspended in PBS to final concentrations of 1.0×10^5 cells/mL and were maintained at 4° C. for immediate i.v inoculation into the tail vein of C57BL6 male mice (Harlan Labs). Next day, following tumor cell inoculation, these animals received i.p. injection of ALOS peptide or saline. Injections were performed daily throughout the working week. Mice were weighed daily on the day of injection.
# For analysis of the peptides' effect on melanoma nodule formation all mice were sacrificed 18 days following the i.v. injection. Organs were dissected analyzed visually. The lungs of sacrificed mice were rinsed in saline and fixed with Bouin's solution. The total number of visible nodules on the lung surface per animal was counted.
# For analysis of the peptides' effect on survival of melanoma cell-inoculated mice, animals were observed several times a week for signs of lethargy such as weight loss, hunched position and epilepsy. In order to lessen suffering, when these symptoms occurred, mice were euthanized with cervical dislocation after CO2 anesthesia. Survival time was recorded and long-term survivors were defined as animals surviving longer than 3 times the median survival of non-treated animals.
# ALOS3 and ALOS4 block melanoma growth in metastatic melanoma mice model: An important clinical problem of malignant tumors is that lethality is mostly attributed to metastasis of the primary neoplastic cells. Complete eradication of the primary malignant cells is usually limited, due to location of the tumor, spread to distant organs and severe side effects caused by treatment. The effects of ALOS 3 and 4 on artificial metastasis, using highly metastatic melanoma B16-F10 cells was studied. 5×10^4 cells of B16-F10/0.2 ml/mouse were injected into the tail vein of 8 weeks old C57BL/6 mice. […] 18 days later the mice were sacrificed, lungs were dissected and the total number of visible nodules on the lung surface was counted. […]
# [2] = Elevated Plus Maze (EPM) test in metastatic melanoma mice; format: in vivo; conditions: 0.3 mg/kg chronic, vs control, p<0.01
# Description: The EPM apparatus comprises two closed (10 cm×45 cm×40 cm) and two open (10 cm×45 cm) arms that extend from a common central platform (10 cm×10 cm). The black apparatus is elevated to a height of 60 cm above floor level. The tests were conducted at the same time of the day (10.00-12.00 h) during the period of illumination in the mice's colony room. For habituation, all animals were placed in the experimental room one hour prior to the test. Each animal was placed at the center of the maze, facing one of the closed arms. Each mouse spent a five minute session in the EPM, during which the number of entries into open and closed arms as well as time spent in the open and closed arms were video scored.
sequence,measurement,setting,value
CAPSPSRLC (disulfide 1-9 (inferred)) [ALOS3],Survival of metastatic melanoma mice,"[1]; 0.3 mg/kg daily i.p., 5×10^3 B16-F10 cells i.v., vs saline",significantly increased the survival; also recorded: significantly delayed animals' death
same,Number of metastatic melanoma sites (visible nodules) in the lungs,"[1]; 0.3 mg/kg daily i.p., 5×10^4 B16-F10 cells i.v., day 18",significantly blocked the number of metastatic melanoma sites in the lungs
same,Animals' weight during treatment course,"[1]; metastatic melanoma mice, ALOS vs saline",did not show weight loss
same,"EPM performance (ratio of time spent in open arms to total time), anxiolytic effect",[2],significantly increased the performance of the mice; also recorded: exerted anxiolytic effect
